According to US20240208964A1, “PYRIDOPYRIMIDINES AND METHODS OF THEIR USE” (PYRIDOPYRIMIDINES AND METHODS OF THEIR USE, priority 2020, published 2024):
pIC50: −log10 of the molar value.

Target: full-length human PIKFYVE (GST-PIKFYVE) (Homo sapiens (Human), UniProt Q9Y2I7, L932S/Q1183K/Q995L/S1033A/S696N/T998S)
Assay: PIKfyve biochemical assay (ADP-Glo Kinase assay, Carna Biosciences)
Conditions: ADP-Glo, full-length human PIKFYVE; read-out: hPIKfyve IC50
Source text: PIKfyve Biochemical Assay. The biochemical PIKFyve inhibition assays were run by Carna Biosciences according to proprietary methodology based on the Promega ADP-Glo™ Kinase assay. A full-length human PIKFYVE [1-2098(end) amino acids and S696N, L932S, Q995L, T998S, S1033A and Q1183K of the protein having the sequence set forth in NCBI Reference Sequence No. NP_055855.2] was expressed as N-terminal GST-fusion protein (265 kDa) using baculovirus expression system. GST-PIKFYVE was purified by using glutathione sepharose chromatography and used in an ADP-Glo™ Kinase assay (Promega). Reactions were set up by adding the test compound solution, substrate solution, ATP solution and kinase solution, each at 4× final concentrations. Reactions were prepared with assay buffer (50 mM MOPS, 1 mM DTT, pH7.2), mixed, and incubated in black 384 well polystyrene plates for 1 hour at room temperature. ADP-Glo™ reagent was then added for 40 minutes, followed by kinase detection reagent for an additional 40 minutes. The kinase activity was evaluated by detecting relative light units on a luminescence plate reader. Samples were run in duplicate from 10 μM to 3 nM. […] IC50 values were calculated from concentration vs % inhibition curves by fitting to a four-parameter logistic curve.
The biochemical PIKFyve inhibition assays were run by Carna Biosciences according to proprietary methodology based on the Promega ADP-Glo™ Kinase assay. A full-length human PIKFYVE [1-2098(end) amino acids and S696N, L932S, Q995L, T998S, S1033A and Q1183K of accession number NP_055855.2] was expressed as N-terminal GST-fusion protein (265 kDa) using baculovirus expression system. GST-PIKFYVE was purified by using glutathione sepharose chromatography and used in an ADP-Glo™ Kinase assay (Promega).
Reactions were set up by adding the test compound solution, substrate solution, ATP solution and kinase solution, each at 4× final concentrations. Reactions were prepared with assay buffer (50 mM MOPS, 1 mM DTT, pH7.2), mixed, and incubated in black 384 well polystyrene plates for 1 hour at room temperature. ADP-Glo™ reagent was then added for 40 minutes, followed by kinase detection reagent for an additional 40 minutes. The kinase activity was evaluated by detecting relative light units on a luminescence plate reader. Samples were run in duplicate from 10 uM to 3 nM. […] IC50 values were calculated from concentration vs % inhibition curves by fitting to a four-parameter logistic curve.

full-length human PIKFYVE (GST-PIKFYVE), sequence (Q9Y2I7 whole entry S696N/L932S/Q995L/T998S/S1033A/Q1183K): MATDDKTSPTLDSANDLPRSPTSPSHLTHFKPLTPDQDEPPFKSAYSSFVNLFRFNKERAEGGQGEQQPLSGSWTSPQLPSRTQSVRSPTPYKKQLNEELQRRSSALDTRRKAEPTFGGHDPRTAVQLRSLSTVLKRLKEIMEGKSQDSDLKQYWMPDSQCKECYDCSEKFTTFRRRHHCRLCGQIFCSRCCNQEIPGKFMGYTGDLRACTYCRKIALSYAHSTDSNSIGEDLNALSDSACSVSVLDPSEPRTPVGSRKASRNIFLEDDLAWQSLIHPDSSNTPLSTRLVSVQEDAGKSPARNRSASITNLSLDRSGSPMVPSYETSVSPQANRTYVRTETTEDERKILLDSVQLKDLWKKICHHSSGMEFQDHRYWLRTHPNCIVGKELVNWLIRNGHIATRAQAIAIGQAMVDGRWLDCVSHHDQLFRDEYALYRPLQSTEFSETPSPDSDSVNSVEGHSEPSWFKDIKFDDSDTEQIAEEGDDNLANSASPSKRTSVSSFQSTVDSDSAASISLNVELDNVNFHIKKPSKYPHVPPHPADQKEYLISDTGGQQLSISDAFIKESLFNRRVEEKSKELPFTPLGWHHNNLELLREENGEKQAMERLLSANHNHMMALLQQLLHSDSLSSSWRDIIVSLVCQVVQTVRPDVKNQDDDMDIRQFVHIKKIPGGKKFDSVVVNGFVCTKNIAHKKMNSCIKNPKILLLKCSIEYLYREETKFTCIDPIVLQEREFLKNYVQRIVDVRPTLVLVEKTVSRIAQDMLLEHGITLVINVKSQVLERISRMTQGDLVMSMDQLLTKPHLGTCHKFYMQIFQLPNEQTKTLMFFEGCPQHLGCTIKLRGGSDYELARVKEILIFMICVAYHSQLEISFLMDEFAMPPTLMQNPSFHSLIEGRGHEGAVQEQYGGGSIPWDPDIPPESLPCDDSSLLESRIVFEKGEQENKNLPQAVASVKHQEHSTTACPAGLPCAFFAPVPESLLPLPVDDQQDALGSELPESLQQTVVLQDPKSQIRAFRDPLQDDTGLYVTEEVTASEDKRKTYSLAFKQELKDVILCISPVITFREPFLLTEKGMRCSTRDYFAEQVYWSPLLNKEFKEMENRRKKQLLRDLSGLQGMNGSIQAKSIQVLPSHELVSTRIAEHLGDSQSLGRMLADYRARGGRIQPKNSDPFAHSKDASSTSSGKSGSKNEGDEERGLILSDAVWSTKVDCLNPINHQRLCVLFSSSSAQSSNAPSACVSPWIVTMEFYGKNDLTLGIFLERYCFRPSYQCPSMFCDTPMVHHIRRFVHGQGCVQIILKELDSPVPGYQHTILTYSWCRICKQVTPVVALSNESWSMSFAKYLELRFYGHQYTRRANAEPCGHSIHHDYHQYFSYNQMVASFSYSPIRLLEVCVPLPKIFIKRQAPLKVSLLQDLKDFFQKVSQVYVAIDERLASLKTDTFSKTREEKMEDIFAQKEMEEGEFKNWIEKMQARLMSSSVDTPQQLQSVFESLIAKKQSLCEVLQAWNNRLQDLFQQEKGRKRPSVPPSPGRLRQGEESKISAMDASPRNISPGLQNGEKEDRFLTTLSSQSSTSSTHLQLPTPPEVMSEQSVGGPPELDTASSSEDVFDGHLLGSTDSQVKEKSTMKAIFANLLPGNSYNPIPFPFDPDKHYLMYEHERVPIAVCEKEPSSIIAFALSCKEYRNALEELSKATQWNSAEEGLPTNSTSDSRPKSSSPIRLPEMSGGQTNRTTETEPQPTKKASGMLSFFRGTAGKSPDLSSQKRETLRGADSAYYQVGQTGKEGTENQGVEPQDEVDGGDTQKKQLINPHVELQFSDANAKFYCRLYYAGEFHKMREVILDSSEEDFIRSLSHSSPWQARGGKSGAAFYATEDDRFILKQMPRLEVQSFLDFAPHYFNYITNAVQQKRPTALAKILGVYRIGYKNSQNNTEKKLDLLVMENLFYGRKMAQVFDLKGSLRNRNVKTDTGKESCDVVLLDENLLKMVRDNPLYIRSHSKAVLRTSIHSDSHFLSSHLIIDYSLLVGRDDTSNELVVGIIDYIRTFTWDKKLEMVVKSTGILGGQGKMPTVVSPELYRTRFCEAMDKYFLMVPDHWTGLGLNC

Row | pIC50 | SMILES
1 | 6.00 to 7.00 | Cc1cccc(CCNc2nc(N3CCOCC3)c3ncccc3n2)c1 [compound 23, N-(3-methylphenethyl)-4-morpholinopyrido[3,2-d]pyrimidin-2-amine]
2 | 5.00 to 6.00 | Oc1cc(-c2ccccc2)nn1-c1nc(N2CCOCC2)c2cccnc2n1 [compound 25, 2-(4-morpholinopyrido[2,3-d]pyrimidin-2-yl)-5-phenyl-2,4-dihydro-3H-pyrazol-3-one]
3 | 7.00 to 8.00 | Oc1cc(-c2ccccc2)nn1-c1nc(N2CCOCC2)c2ncccc2n1 [compound 27, 1-(4-morpholinopyrido[3,2-d]pyrimidin-2-yl)-3-phenyl-1H-pyrazol-5-ol]
4 | 5.00 to 6.00 | O=C1N(c2cccc(F)c2)CCN1c1nc(N2CCOCC2)c2ncccc2n1 [compound 28, 1-(3-fluorophenyl)-3-(4-morpholinopyrido[3,2-d]pyrimidin-2-yl)imidazolidin-2-one]
5 | 5.00 to 6.00 | O=C1N(c2ccccc2)CCN1c1nc(N2CCOCC2)c2ncccc2n1 [compound 29, 1-(4-morpholinopyrido[3,2-d]pyrimidin-2-yl)-3-phenyl-imidazolidin-2-one]
6 | 5.00 to 6.00 | O=C1N(c2nc(N3CCOCC3)c3ncccc3n2)CCN1C1CCCC1 [compound 30, 1-cyclopentyl-3-(4-morpholinopyrido[3,2-d]pyrimidin-2-yl)imidazolidin-2-one]
7 | 5.00 to 6.00 | CCn1c(-c2ccccc2)nn(-c2nc(N3CCOCC3)c3ncccc3n2)c1=O [compound 31, 4-ethyl-2-(4-morpholinopyrido[3,2-d]pyrimidin-2-yl)-5-phenyl-1,2,4-triazol-3-one]
8 | 5.00 to 6.00 | Cn1c(-c2ccccc2)nn(-c2nc(N3CCOCC3)c3ncccc3n2)c1=O [compound 32, 4-methyl-2-(4-morpholinopyrido[3,2-d]pyrimidin-2-yl)-5-phenyl-1,2,4-triazol-3-one]
9 | 5.00 to 6.00 | CC(C)(C)OC(=O)N1CCC(c2nccc(-c3nc(N4CCOCC4)c4ncccc4n3)n2)CC1 [compound 33, tert-butyl 4-[4-(4-morpholinopyrido[3,2-d]pyrimidin-2-yl)pyrimidin-2-yl]piperidine-1-carboxylate]
10 | 5.00 to 6.00 | c1cnc2c(N3CCOCC3)nc(-c3ccnc(N4CCNCC4)n3)nc2c1 [compound 34, 4-[2-(2-piperazin-1-ylpyrimidin-4-yl)pyrido[3,2-d]pyrimidin-4-yl]morpholine]
11 | 5.00 to 6.00 | c1cnc2c(N3CCOCC3)nc(-c3ccnc(C4CCOCC4)n3)nc2c1 [compound 35, 4-[2-(2-tetrahydropyran-4-ylpyrimidin-4-yl)pyrido[3,2-d]pyrimidin-4-yl]morpholine]
12 | 5.00 to 6.00 | c1cnc2c(N3CCOCC3)nc(-c3ccnc(C4CCNCC4)n3)nc2c1 [compound 37, 4-[2-[2-(4-piperidyl)pyrimidin-4-yl]pyrido[3,2-d]pyrimidin-4-yl]morpholine]
13 | 5.00 to 6.00 | CN1CCC(c2nccc(-c3nc(N4CCOCC4)c4ncccc4n3)n2)CC1 [compound 38, 4-[2-[2-(1-methyl-4-piperidyl)pyrimidin-4-yl]pyrido[3,2-d]pyrimidin-4-yl]morpholine]
14 | 5.00 to 6.00 | c1cnc2c(N3CCOCC3)nc(-n3ccc(C4CCNCC4)n3)nc2c1 [compound 42, 4-[2-[3-(4-piperidyl)pyrazol-1-yl]pyrido[3,2-d]pyrimidin-4-yl]morpholine]
15 | 5.00 to 6.00 | c1cnc2c(N3CCOCC3)nc(-n3ccc(C4CCCNC4)n3)nc2c1 (centres unmarked) [compound 43, 4-(2-(3-(piperidin-3-yl)-1H-pyrazol-1-yl)pyrido[3,2-d]pyrimidin-4-yl)morpholine]
16 | 5.00 to 6.00 | CN1CCCC(c2ccn(-c3nc(N4CCOCC4)c4ncccc4n3)n2)C1 (centres unmarked) [compound 44, 4-(2-(3-(1-methylpiperidin-3-yl)-1H-pyrazol-1-yl)pyrido[3,2-d]pyrimidin-4-yl)morpholine]
17 | 5.00 to 6.00 | c1cnc2c(N3CCOCC3)nc(-n3ccc(C4CCOCC4)n3)nc2c1 [compound 45, 4-(2-(3-(tetrahydro-2H-pyran-4-yl)-1H-pyrazol-1-yl)pyrido[3,2-d]pyrimidin-4-yl)morpholine]
18 | 5.00 to 6.00 | c1ccc(-c2ccn(-c3nc(N4CCOCC4)c4cnccc4n3)n2)cc1 [compound 46, 4-(2-(3-phenyl-1H-pyrazol-1-yl)pyrido[4,3-d]pyrimidin-4-yl)morpholine]

Row | pIC50 | SMILES
19 | 5.00 to 6.00 | c1cnc2c(N3CCOCC3)nc(-n3ccc(C4CCCNC4)n3)nc2c1 (centres unmarked) [compound 48]
20 | 5.00 to 6.00 | c1cnc2c(N3CCOCC3)nc(-c3ccnc(N4CCOCC4)n3)nc2c1 [compound 51, 4-[4-(4-morpholinopyrido[3,2-d]pyrimidin-2-yl)pyrimidin-2-yl]morpholine]
21 | 5.00 to 6.00 | CC(C)(C)OC(=O)N1CCN(c2nccc(-c3nc(N4CCOCC4)c4ncccc4n3)n2)CC1 [compound 55, tert-butyl 4-[4-(4-morpholinopyrido[3,2-d]pyrimidin-2-yl)pyrimidin-2-yl]piperazine-1-carboxylate]
22 | 7.00 to 8.00 | c1cncc(Cc2nc(N3CCOCC3)c3ncccc3n2)c1 [compound 72]
23 | 6.00 to 7.00 | O=C(c1cccnc1)c1nc(N2CCOCC2)c2ncccc2n1 [compound 73]
24 | 6.00 to 7.00 | c1coc(-c2nc(N3CCOCC3)c3ncccc3n2)c1 [compound 74]
25 | 7.00 to 8.00 | c1cncc(Oc2nc(N3CCOCC3)c3ncccc3n2)c1 [compound 75]
26 | 6.00 to 7.00 | Cc1cccc(CCNc2nc(N3CCOCC3)c3ncc(C(O)c4cccnc4)cc3n2)c1 (centres unmarked) [compound 76]
27 | 6.00 to 7.00 | Cc1cccc(CCNc2nc(N3CCOCC3)c3ncc(C(=O)c4cccnc4)cc3n2)c1 [compound 77]
28 | 6.00 to 7.00 | Cc1cccc(CCNc2nc(N3CCOCC3)c3ncc(Cc4cccnc4)cc3n2)c1 [compound 78]
29 | 5.00 to 6.00 | Clc1nc(N2CCOCC2)c2ncc(Cc3cccnc3)cc2n1 [compound 82]
30 | 5.00 to 6.00 | Fc1cccc(Nc2nc(N3CCOCC3)c3ncc(Cc4cccnc4)cc3n2)c1 [compound 83]
31 | 5.00 to 6.00 | c1ccc(Oc2nc(N3CCOCC3)c3ncc(Cc4cccnc4)cc3n2)cc1 [compound 84]
32 | 6.00 to 7.00 | c1ccc(-c2nccc(-c3nc(N4CCOCC4)c4ncc(Cc5cccnc5)cc4n3)n2)cc1 [compound 85]
33 | 6.00 to 7.00 | Fc1cccc(-c2nccc(-c3nc(N4CCOCC4)c4ncc(Cc5cccnc5)cc4n3)n2)c1 [compound 86]
34 | 6.00 to 7.00 | c1ccc(Nc2nc(N3CCOCC3)c3ncc(C4CCCO4)cc3n2)cc1 (centres unmarked) [compound 87]
35 | 5.00 to 6.00 | c1ccc(Oc2nc(N3CCOCC3)c3ncc(C4CCCO4)cc3n2)cc1 (centres unmarked) [compound 88]
